In the supplement of paper PMC10307832:

Tests used:
Assay in all cases: relative viability (nuclei count vs DMSO), 5 days (fraction); higher = more cells survive
Dinaciclib + Alpelisib = compound: CCc1cnn2c(NCc3ccc[n+]([O-])c3)cc(N3CCCC[C@H]3CCO)nc12 [Dinaciclib] + Cc1nc(NC(=O)N2CCC[C@H]2C(N)=O)sc1-c1ccnc(C(C)(C)C(F)(F)F)c1 [Alpelisib] (partner 2 µM)
How it was run: (§1)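 The day after seeding in 1536-well plates, lung cancer cell lines were treated by pin tool with a single drug, or with a fixed anchor-drug dose together with five library-drug doses (not always all listed) in √10 steps. After 5 days, a combined fix-and-stain solution (final 0.05% Triton X-100, 1% formaldehyde, 1 ug/ml Hoechst) was added. Nuclei counted on 4× images gave relative viability as treated counts over vehicle counts, reported as the median of duplicate plates.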

Dinaciclib + Phenformin = compound: CCc1cnn2c(NCc3ccc[n+]([O-])c3)cc(N3CCCC[C@H]3CCO)nc12 [Dinaciclib] + N=C(N)NC(=N)NCCc1ccccc1 [Phenformin] (partner 250 µM)
How it was run: as §1

Dinaciclib + Dasatinib = compound: CCc1cnn2c(NCc3ccc[n+]([O-])c3)cc(N3CCCC[C@H]3CCO)nc12 [Dinaciclib] + Cc1nc(Nc2ncc(C(=O)Nc3c(C)cccc3Cl)s2)cc(N2CCN(CCO)CC2)n1 [Dasatinib] (partner 0.075 µM)
How it was run: as §1

Dinaciclib + Lapatinib = compound: CCc1cnn2c(NCc3ccc[n+]([O-])c3)cc(N3CCCC[C@H]3CCO)nc12 [Dinaciclib] + CS(=O)(=O)CCNCc1ccc(-c2ccc3ncnc(Nc4ccc(OCc5cccc(F)c5)c(Cl)c4)c3c2)o1 [Lapatinib] (partner 2 µM)
How it was run: as §1

Dinaciclib + AZD7762 = compound: CCc1cnn2c(NCc3ccc[n+]([O-])c3)cc(N3CCCC[C@H]3CCO)nc12 [Dinaciclib] + NC(=O)Nc1cc(-c2cccc(F)c2)sc1C(=O)N[C@H]1CCCNC1 [AZD7762] (partner 0.2 µM)
How it was run: as §1

Cell Line	relative viability (Dinaciclib + Alpelisib; first compound 0.009487 µM)	relative viability (Dinaciclib + Alpelisib; first compound 0.03 µM)	relative viability (Dinaciclib + Alpelisib; first compound 0.09487 µM)	relative viability (Dinaciclib + Alpelisib; first compound 0.3 µM)	relative viability (Dinaciclib + Phenformin; first compound 0.009487 µM)	relative viability (Dinaciclib + Phenformin; first compound 0.03 µM)	relative viability (Dinaciclib + Phenformin; first compound 0.09487 µM)	relative viability (Dinaciclib + Phenformin; first compound 0.3 µM)	relative viability (Dinaciclib + Dasatinib; first compound 0.009487 µM)	relative viability (Dinaciclib + Dasatinib; first compound 0.03 µM)	relative viability (Dinaciclib + Dasatinib; first compound 0.09487 µM)	relative viability (Dinaciclib + Dasatinib; first compound 0.3 µM)	relative viability (Dinaciclib + Lapatinib; first compound 0.009487 µM)	relative viability (Dinaciclib + Lapatinib; first compound 0.03 µM)	relative viability (Dinaciclib + Lapatinib; first compound 0.09487 µM)	relative viability (Dinaciclib + Lapatinib; first compound 0.3 µM)	relative viability (Dinaciclib + AZD7762; first compound 0.009487 µM)	relative viability (Dinaciclib + AZD7762; first compound 0.03 µM)	relative viability (Dinaciclib + AZD7762; first compound 0.09487 µM)	relative viability (Dinaciclib + AZD7762; first compound 0.3 µM)
NCI-H2087	0.843	0.144	0.121	0.116	0.588	0.112	0.118	0.107	0.808	0.0939	0.0743	0.0752	0.828	0.168	0.15	0.136	1.44	0.108	0.127	0.123
NCI-H2126	0.732	0.399	0.209	0.196	0.443	0.258	0.221	0.21	0.54	0.187	0.212	0.187	0.784	0.354	0.204	0.231	1.13	0.899	0.29	0.198
NCI-H2170	0.646	0.166	0.162	0.198	0.415	0.133	0.119	0.152	0.475	0.137	0.123	0.13	0.273	0.197	0.186	0.175	0.705	0.122	0.108	0.128
NCI-H2347	0.986	0.324	0.274	0.222	0.468	0.131	0.193	0.209	0.344	0.246	0.173	0.171	0.959	0.637	0.214	0.259	0.78	0.226	0.2	0.185
